One test addresses LigM (Sphingobium sp. SYK-6, UniProt G2IQS7). In words: whole-cell consumption. Format: cell-based. The conditions noted are these: tetrahydrofolate cofactor; with ligH and metF in R. eutropha H16.
The next test has as its target T1, VanAB (Pseudomonas putida, UniProt Q88GI6).
T1 sequence (Q88GI6 1-355): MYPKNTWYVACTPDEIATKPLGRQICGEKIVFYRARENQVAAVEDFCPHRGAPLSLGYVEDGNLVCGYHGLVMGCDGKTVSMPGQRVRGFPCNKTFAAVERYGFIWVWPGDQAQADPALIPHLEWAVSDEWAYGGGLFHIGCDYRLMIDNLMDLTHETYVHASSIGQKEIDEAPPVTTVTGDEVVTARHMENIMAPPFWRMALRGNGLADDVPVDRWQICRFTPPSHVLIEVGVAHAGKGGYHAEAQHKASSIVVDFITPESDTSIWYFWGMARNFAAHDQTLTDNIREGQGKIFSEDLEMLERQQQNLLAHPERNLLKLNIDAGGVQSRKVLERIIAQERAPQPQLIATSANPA
T1 sequence (Q88GI5 1-316 partner): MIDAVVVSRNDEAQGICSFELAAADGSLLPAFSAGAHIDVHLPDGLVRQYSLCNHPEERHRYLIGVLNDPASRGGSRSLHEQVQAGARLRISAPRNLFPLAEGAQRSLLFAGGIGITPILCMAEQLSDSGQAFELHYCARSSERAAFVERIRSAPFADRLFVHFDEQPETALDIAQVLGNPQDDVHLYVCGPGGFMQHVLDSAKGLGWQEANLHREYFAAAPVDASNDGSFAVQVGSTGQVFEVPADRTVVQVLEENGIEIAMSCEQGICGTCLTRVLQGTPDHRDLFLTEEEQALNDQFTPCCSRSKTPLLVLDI
Description: whole-cell consumption. Format: cell-based. Conditions: R. eutropha H16 expressing vanAB, sole carbon source, 30 °C.

Chain of LigM (G2IQS7 whole entry): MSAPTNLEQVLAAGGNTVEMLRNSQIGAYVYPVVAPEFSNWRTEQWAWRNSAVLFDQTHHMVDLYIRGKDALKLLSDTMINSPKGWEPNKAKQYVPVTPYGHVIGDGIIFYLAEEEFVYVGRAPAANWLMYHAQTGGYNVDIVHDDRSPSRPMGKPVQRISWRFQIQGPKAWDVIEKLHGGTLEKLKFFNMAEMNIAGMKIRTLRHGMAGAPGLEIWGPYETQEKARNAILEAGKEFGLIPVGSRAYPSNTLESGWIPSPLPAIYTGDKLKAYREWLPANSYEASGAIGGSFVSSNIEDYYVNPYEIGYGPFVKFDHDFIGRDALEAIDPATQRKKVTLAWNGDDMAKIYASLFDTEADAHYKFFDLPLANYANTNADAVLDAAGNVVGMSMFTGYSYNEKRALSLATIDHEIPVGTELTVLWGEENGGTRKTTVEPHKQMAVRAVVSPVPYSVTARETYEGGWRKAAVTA

For the molecule `COc1cc(C(=O)O)ccc1O` [vanillic acid], the “whole-cell consumption (HPLC) and growth” value on LigM is “the demethylation process of the optimized LigM system is still the main rate-limiting step”; at VanAB it was “expression of vanAB could enable the strain to use vanillic acid”.
